Results on 14 compounds are retold here after US20240109885A1, “2,3-DIHYDRO-1H-PYRROLO[3,2-B]PYRIDINE DERIVATIVE, PREPARATION METHOD THEREFOR, AND APPLICATION THEREOF” (Abbisko Therapeutics Co., Ltd, priority 2020, published 2024).

Holding throughout (assay type): cell-based
One test concerns A431 (EGFR-WT). The test is described as follows: Cell proliferation assay (CellTiter-Glo), A431 cells. As to conditions: Homo sapiens, A-431, 72 hrs, CTG assay, * = average of multiple measurements. The method, then:
I. Cell proliferation assay (i) Reagents and consumables • Fetal bovine serum (FBS) (GBICO, Cat #10099-141); • CellTiter-Glo® Luminescent Cell Viability Assay Kit (Promega, Cat #G7572); • Black transparent flat-bottomed 96-well plate (Corning®, Cat #3603).
• SpectraMax Multi-Label Microplate Detector MD, 2104-0010A; • CO2 incubator, Thermo Scientific 3100 Series; • Biosafety cabinet, Thermo Scientific, 1300 Series type A2; • Inverted microscope, Olympus, CKX41SF; • Siemens refrigerator KK25E76TI. (iii) Cell lines and culture conditions
(iv) Experimental procedures 1. Cell culture and seeding: • (1) Cells in the logarithmic growth phase were harvested, and counted using a platelet counter. Cell viability was detected by the trypan blue exclusion assay to ensure that the cell viability was above 90%. • (2) The cell concentration was adjusted to achieve the final density; and 90 μL of the cell suspension was added to the 96-well plate. • (3) The cells were incubated in the 96-well plate overnight at 37° C. in the presence of 5% CO2 with 95% humidity. 2. TO benchmark data: • (1) 10 μL of PBS was added to each well of the TO flat plate containing the cells. • (2) The CTG reagent was thawed, and the cell plate was equilibrated to room temperature for 30 min. • (3) An equal volume of CTG solution was added to each well. • (4) The cells were shaken for 5 min on an orbital shaker for lysis. • (5) The cell plate was left at room temperature for 20 min to stabilize luminescent signals. • (6) The values of TO luminescent signals were read. 3. Compound dilution and addition • (1) According to the compound information table, a corresponding volume of DMSO was added to the corresponding compound powder to prepare a 10 mM stock solution. • (2) Compound solutions diluted at 1000 fold and 3.16 fold were prepared. • (3) The compound solution diluted at 1000 fold was diluted at 100 fold with PBS, to prepare the compound solutions at 10 fold in 9 concentrations, with the maximum concentration of […]; and the compound solution was diluted at 3.16 fold. 10 μL of medicament solution was added to each well of the seeded 96-well plate. Three replicate wells were provided for each concentration of the compound, and the final concentration of DMSO was 0.1%. • (4) Cells were placed in the 96-well plate containing the medicament and subsequently cultured for 72 hrs at 37° C. in the presence of 5% CO2 with 95% humidity, and then, CTG assay was conducted. 4. Reading of luminescent signals • (1) The CTG reagent was thawed, and the cell plate was equilibrated to room temperature for 30 min. • (2) An equal volume of CTG solution was added to each well. • (3) The cells were shaken for 5 min on an orbital shaker for lysis.
(4) The cell plate was left at room temperature for 20 min to stabilize the luminescent signals. • (5) Luminescent values were read. Data processing
The data were analyzed using software GraphPad Prism 7.0, and fitted by the nonlinear S-curve regression to obtain a dose-effect curve, based on which the IC50 value (unit: nM) was calculated, with the specific test results shown in Table 1.
Cell viability (%)=(Lum test medicament-Lum culture medium control)/(Lum cell control-Lum culture medium control)×100%.

Test [1] has as its target Ba/F3 EGFR-D770-N771ins_SVD (Homo sapiens, UniProt P00533, DUP768-770, cells depend on it). Nature of the test: Cell proliferation assay (CellTiter-Glo), Ba/F3 EGFR-D770-N771ins_SVD cells. Particulars: 72 hrs, CTG assay, * = average of multiple measurements, read-out: Ba/F3 EGFR-D770-N771ins_SVD (nM), IC50 of cell proliferation. The method, boiled down:
(§1)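 Cells seeded overnight, then treated in triplicate with 9 concentrations (3.16-fold dilutions; 0.1% DMSO final) for 72 h at 37 °C, 5% CO2. Viability by CellTiter-Glo luminescence, normalised to cell and medium controls; IC50 (nM) from nonlinear sigmoidal fit.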
(In general: ATP-based viability assays read luminescence as a measure of living cells.)

The target in test [2] is Ba/F3 EGFR-V769_D770insASV (Homo sapiens, UniProt P00533, DUP767-769, cells depend on it). The test is described as follows: Cell proliferation assay (CellTiter-Glo), Ba/F3 EGFR-V769_D770insASV cells. Particulars: 72 hrs, CTG assay, * = average of multiple measurements, read-out: Ba/F3 EGFR-V769_D770insASV (nM), IC50 of cell proliferation. The procedure, abridged: as §1
Chain of Ba/F3 EGFR-V769_D770insASV (P00533 with tags, fused parts or gaps DUP767-769): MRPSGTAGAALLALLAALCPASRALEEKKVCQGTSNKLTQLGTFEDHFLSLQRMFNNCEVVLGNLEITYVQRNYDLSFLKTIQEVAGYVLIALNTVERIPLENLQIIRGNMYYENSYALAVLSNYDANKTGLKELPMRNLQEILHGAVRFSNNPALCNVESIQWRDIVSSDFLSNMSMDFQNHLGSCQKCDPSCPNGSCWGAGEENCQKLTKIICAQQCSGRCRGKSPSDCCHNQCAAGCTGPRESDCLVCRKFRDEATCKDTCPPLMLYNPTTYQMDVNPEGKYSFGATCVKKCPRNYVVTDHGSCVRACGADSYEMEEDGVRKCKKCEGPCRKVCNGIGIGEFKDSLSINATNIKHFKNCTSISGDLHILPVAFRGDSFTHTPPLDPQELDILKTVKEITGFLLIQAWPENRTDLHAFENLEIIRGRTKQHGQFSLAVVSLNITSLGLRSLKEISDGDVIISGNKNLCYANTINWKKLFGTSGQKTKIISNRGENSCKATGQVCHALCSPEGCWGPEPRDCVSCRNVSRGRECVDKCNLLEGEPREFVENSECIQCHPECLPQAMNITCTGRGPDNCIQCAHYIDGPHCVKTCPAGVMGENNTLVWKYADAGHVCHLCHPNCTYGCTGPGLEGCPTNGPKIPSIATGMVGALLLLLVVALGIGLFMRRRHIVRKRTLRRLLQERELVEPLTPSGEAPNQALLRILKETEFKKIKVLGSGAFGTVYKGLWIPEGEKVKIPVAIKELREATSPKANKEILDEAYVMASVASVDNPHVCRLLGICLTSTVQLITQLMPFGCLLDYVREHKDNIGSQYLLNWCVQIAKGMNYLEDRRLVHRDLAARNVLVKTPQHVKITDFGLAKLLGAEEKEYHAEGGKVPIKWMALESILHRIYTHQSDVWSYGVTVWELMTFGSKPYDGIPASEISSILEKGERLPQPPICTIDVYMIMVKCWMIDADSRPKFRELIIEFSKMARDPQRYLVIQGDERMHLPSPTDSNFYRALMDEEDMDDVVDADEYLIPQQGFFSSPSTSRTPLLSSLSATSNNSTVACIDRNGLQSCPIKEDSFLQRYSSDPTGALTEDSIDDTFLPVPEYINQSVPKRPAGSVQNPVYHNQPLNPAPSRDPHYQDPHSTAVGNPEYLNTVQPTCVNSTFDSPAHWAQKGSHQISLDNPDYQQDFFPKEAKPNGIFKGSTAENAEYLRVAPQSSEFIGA

One may read the IC50 as the concentration at which inhibition is half-maximal. A low value points to higher potency.

Chain of Ba/F3 EGFR-D770-N771ins_SVD (P00533 with tags, fused parts or gaps DUP768-770): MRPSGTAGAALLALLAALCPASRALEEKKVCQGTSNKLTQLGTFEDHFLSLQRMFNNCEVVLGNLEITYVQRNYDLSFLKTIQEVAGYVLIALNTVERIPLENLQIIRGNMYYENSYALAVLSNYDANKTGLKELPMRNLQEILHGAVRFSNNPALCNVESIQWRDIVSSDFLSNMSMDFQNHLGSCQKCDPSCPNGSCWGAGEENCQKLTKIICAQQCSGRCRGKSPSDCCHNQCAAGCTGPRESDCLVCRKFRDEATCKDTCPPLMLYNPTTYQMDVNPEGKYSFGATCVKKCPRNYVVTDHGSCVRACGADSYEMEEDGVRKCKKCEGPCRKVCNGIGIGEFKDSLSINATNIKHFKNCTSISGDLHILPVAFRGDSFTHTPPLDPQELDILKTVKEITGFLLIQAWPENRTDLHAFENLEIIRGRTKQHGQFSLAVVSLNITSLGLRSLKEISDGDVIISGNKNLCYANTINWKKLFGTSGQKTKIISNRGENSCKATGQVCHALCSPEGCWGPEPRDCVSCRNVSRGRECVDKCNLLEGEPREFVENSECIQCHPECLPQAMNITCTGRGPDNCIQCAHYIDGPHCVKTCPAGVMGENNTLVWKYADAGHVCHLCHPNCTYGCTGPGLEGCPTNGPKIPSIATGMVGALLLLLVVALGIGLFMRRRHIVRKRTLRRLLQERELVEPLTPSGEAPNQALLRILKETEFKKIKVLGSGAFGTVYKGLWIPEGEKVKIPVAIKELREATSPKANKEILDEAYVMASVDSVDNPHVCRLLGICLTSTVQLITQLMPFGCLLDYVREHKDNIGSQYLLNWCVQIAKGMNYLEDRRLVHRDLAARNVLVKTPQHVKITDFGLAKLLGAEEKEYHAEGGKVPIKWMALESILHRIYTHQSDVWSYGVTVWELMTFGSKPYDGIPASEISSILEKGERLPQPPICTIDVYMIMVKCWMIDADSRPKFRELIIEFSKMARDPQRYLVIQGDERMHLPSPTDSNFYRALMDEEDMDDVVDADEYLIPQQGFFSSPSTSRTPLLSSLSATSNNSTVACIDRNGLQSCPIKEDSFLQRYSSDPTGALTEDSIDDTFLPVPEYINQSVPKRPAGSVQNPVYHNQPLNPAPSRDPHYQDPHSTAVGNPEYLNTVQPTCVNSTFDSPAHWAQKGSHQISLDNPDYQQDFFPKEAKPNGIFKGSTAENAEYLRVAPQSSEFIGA

For the compound `C=CC(=O)Nc1cc(Nc2nccc(N3CC(C)(C)c4ncccc43)n2)c(OC(F)F)cc1N(C)CCN(C)C` [Example 45, N-(4-(difluoromethoxy)-5-((4-(3,3-dimethyl-2,3-dihydro-1H-pyrrolo [3,2-b]pyridin-1-yl)pyrimidin-2-yl)amino)-2-((2-(dimethylamino)ethyl)(methyl)amino)phenyl)acrylamide], the half-maximal inhibitory concentration (IC50) in the test with A431 (EGFR-WT) was determined as 1070 nM. For the same compound, the GI50 in test [1] came out at 35.8 nM; in test [2] it was 11.7 nM.

Turning to `C=CC(=O)Nc1cc(Nc2nccc(N3CC(C)(C)c4nc(C5CC5)ccc43)n2)c(OC(F)F)cc1N(C)CCN(C)C` [Example 46, N-(5-((4-(5-cyclopropyl-3,3-dimethyl-2,3-dihydro-1H-pyrrolo[3,2-b]pyridin-1-yl)pyrimidin-2-yl)amino)-4-(difluoromethoxy)-2-((2-(dimethylamino)ethyl)(methyl)amino)phenyl)acrylamide], in the test on A431 (EGFR-WT), 402 nM corresponded to half-maximal inhibition (IC50). The GI50 in test [1] was found to be 22.6 nM; in test [2] it was 21.6 nM.

As to `C=CC(=O)Nc1cc(Nc2nccc(N3CC(C)(C)c4nc(C)ccc43)n2)c(OC(F)F)cc1N(C)CCN(C)C` [Example 47, N-(4-(difluoromethoxy)-2-((2-(dimethylamino)ethyl)(methyl)amino)-5-((4-(3,3,5-trimethyl-2,3-dihydro-1H-pyrrolo[3,2-b]pyridin-1-yl)pyrimidin-2-yl)amino)phenyl) acrylamide], inhibition in the test with A431 (EGFR-WT) was half-maximal at 378 nM (IC50). Moreover, the GI50 in test [1] was 12.9 nM; in test [2] it was 5.6 nM.

Consider `C=CC(=O)Nc1cc(Nc2ncnc(N3CC(C)(C)c4nc(C)ccc43)n2)c(OC(C)C)nc1N(C)CCN(C)C` [Example 48, N-(2-((2-(dimethylamino)ethyl) (methyl)amino)-6-isopropoxy-5-((4-(3,3,5-trimethyl-2,3-dihydro-1H-pyrrolo[3,2-b]pyridin-1-yl)-1,3,5-triazin-2-yl)amino)pyridin-3-yl) acrylamide], for which the IC50 with A431 (EGFR-WT) was found to be 66 nM. In addition, the figures for the GI50 in test [1] and in test [2] were 23.7 nM and 9.1 nM, respectively.

In the test with A431 (EGFR-WT), `C=CC(=O)Nc1cc(Nc2nccc(N3CC(C)(C)c4nc(-c5cnn(C)c5)ccc43)n2)c(OC)cc1N(C)CCN(C)C` [Example 50, N-(5-((4-(3,3-dimethyl-5-(1-methyl-1H-pyrazol-4-yl)-2,3-dihydro-1H-pyrrolo[3,2-b]pyridin-1-yl)pyrimidin-2-yl)amino)-2-((2-(dimethylamino)ethyl)(methyl)amino)-4-methoxyphenyl)acrylamide] registered a half-inhibitory concentration (IC50) of 82.4 nM. The GI50 in test [1] came out at 14.6 nM; in test [2] it was 32.1 nM.

In the test with A431 (EGFR-WT), `C=CC(=O)Nc1cc(Nc2nccc(N3CC(C)(C)c4nc(-n5ccnc5)ccc43)n2)c(OC)cc1N(C)CCN(C)C` [Example 51, N-(5-((4-(5-(1H-imidazole-1-yl)-3,3-dimethyl-2,3-dihydro-1H-pyrrolo[3,2-b]pyridin-1-yl)pyrimidin-2-yl)amino)-2-((2-(dimethylamino)ethyl)(methyl)amino)-4-methoxyphenyl)acrylamide] displayed an IC50 of 620 nM. Also, the GI50 was found to be 34.8 nM in test [1] and 123 nM in test [2].

As to `C=CC(=O)Nc1cc(Nc2nccc(N3CC4(CCC4)c4nc(C)ccc43)n2)c(OC)cc1N(C)CCN(C)C` [Example 52, N-(2-((2-(dimethylamino)ethyl) (methyl)amino)-4-methoxy-5-((4-(5′-methylspiro[cyclobutane-1,3′-pyrrolo[3,2-b]pyridin]-1′(2′H)-yl)pyrimidin-2-yl)amino)phenyl) acrylamide], in the test on A431 (EGFR-WT), the half-maximal inhibitory concentration (IC50) was found to be 189 nM. In addition, the GI50 in test [1] is 32.9 nM; in test [2], 54.2 nM.

In the test on A431 (EGFR-WT), `C=CC(=O)Nc1cc(Nc2nccc(N3CC4(CCC4)c4nc(C)ccc43)n2)c(OC)nc1N(C)CCN(C)C` [Example 53, N-(2-((2-(dimethylamino)ethyl) (methyl)amino)-6-methoxy-5-((4-(5′-methylspiro[cyclobutane-1,3′-pyrrolo[3,2-b]pyridin]-1′(2′H)-yl)pyrimidin-2-yl)amino)pyridin-3-yl) acrylamide] displayed a half-maximal inhibitory concentration (IC50) of 96.9 nM. Moreover, the values for the GI50 in test [1] and in test [2] were 14.8 nM and 26.3 nM, respectively.

Regarding `C#Cc1ccc2c(n1)C(C)(C)CN2c1ccnc(Nc2cc(NC(=O)C=C)c(N(C)CCN(C)C)cc2OC)n1` [Example 54, N-(2-((2-(dimethylamino)ethyl)(methyl)amino)-5-((4-(5-ethynyl-3,3-dimethyl-2,3-dihydro-1H-pyrrolo[3,2-b]pyridin-1-yl)pyrimidin-2-yl)amino)-4-methoxyphenyl)acrylamide], the midpoint of inhibition in the test on A431 (EGFR-WT), the IC50, lay at 72.9 nM. Further, the GI50 amounted to 17.8 nM in test [1] and 30.6 nM in test [2].

In the test on A431 (EGFR-WT), `C=CC(=O)Nc1cc(Nc2ncnc(N3CC4(CCC4)c4ncccc43)n2)c(OC)cc1N(C)CCN(C)C` [Example 55, N-(2-((2-(dimethylamino)ethyl) (methyl)amino)-4-methoxy-5-((4-(spiro[cyclobutane-1,3′-pyrrolo[3,2-b]pyridin]-1′(2′H)-yl)-1,3,5-triazin-2-yl)amino)phenyl)acrylamide] showed an IC50 of 312 nM. The figures for the GI50 in test [1] and in test [2] were 23.8 nM and 47 nM, respectively.

In the test with A431 (EGFR-WT), `C=CC(=O)Nc1cc(Nc2nccc(N3CC4(CCC4)c4nc(C)ccc43)n2)c(OCC(F)(F)F)nc1N(C)CCN(C)C` [Example 56, N-(2-((2-(dimethylamino)ethyl) (methyl)amino)-5-((4-(5′-methylspiro [cyclobutane-1,3′-pyrrolo[3,2-b]pyridin]-1′(2′H)-yl)pyrimidin-2-yl)amino)-6-(2,2,2-trifluoroethoxy)pyridin-3-yl)acrylamide] displayed a 50% inhibitory concentration (IC50) of 348 nM. The GI50 amounted to 12 nM in test [1] and 35.4 nM in test [2].

With `C=CC(=O)Nc1cc(Nc2nccc(N3CC4(CCC4)c4ncccc43)n2)c(OCC(F)(F)F)nc1N(C)CCN(C)C` [Example 57, N-(2-((2-(dimethylamino)ethyl) (methyl)amino)-5-((4-(spiro[cyclo-butane-1,3′-pyrrolo[3,2-b]pyridin]-1′(2′H)-yl)pyrimidin-2-yl)amino)-6-(2,2,2-trifluoroethoxy)pyridin-3-yl)acrylamide], the IC50 in the test on A431 (EGFR-WT) was found to be 673 nM. Further, the GI50 in test [1] was found to be 32.7 nM; in test [2] it was 79.7 nM.

`C=CC(=O)Nc1cc(Nc2nccc(N3CC(C)(C)c4nc(-n5cnc(C)c5)ccc43)n2)c(OC)cc1N(C)CCN(C)C` [Example 60, N-(5-((4-(3,3-dimethyl-5-(4-methyl-1H-imidazole-1-yl)-2,3-dihydro-1H-pyrrolo[3,2-b]pyridin-1-yl)pyrimidin-2-yl)amino)-2-((2-(dimethylamino)ethyl)(methyl)amino)-4-methoxyphenyl)acrylamide] gave a half-inhibitory concentration (IC50) in the test on A431 (EGFR-WT) of 747 nM. For the same compound, the values for the GI50 in test [1] and in test [2] were 34.5 nM and 110 nM, respectively.

On to `C=CC(=O)Nc1cc(Nc2ncnc(N3CC4(CCC4)c4nc(C)ccc43)n2)c(OC)cc1N(C)CCN(C)C` [Example 61, N-(2-((2-(dimethylamino)ethyl) (methyl)amino)-4-methoxy-5-((4-(5′-methylspiro[cyclobutane-1,3′-pyrrolo[3,2-b]pyridin]-1′(2′H)-yl)-1,3,5-triazin-2-yl)amino)phenyl) acrylamide], for which, in the test with A431 (EGFR-WT), 18.7 nM corresponded to half-maximal inhibition (IC50). In addition, the GI50 in test [1] turned out to be 14.1 nM; in test [2], 46.4 nM.
